These results are taken from article PMC4526917 (Journal of Experimental Botany, 2015).

For one experiment, the system named is maize pollen tube. Details: method as in Amien et al., 2010. As to conditions: ref Amien et al., 2010; cited from earlier work.
Experiment [1] deals with F. graminearum conidia and mycelia. Type of experiment: cell-based, Fusarium graminearum. The following applies: 90 µM peptide, after 6h; microscopy.
Experiment [2] deals with U. maydis spores. As to conditions: for inhibition of germination of Ustilago spores: 24 h, 90 μM.
Experiment [3] deals with U. maydis spores. Type of experiment: cell-based, Ustilago maydis.
The subject of another experiment is maize pollen tubes. The experiment can be described thus: Pollen tube burst assay. Type of experiment: cell-based, Zea mays. As to conditions: for maize pollen tube burst: mean ±SD. Here is the method:
The assay was applied as described ([Woriedh et al., 2013]). Briefly, freshly collected pollen was immediately distributed onto Petri dishes containing droplets of 10 µL PGM at different pH values. Pollen tubes started to burst or to grow after about 10min. Pollen tubes were subjected to further studies only if germination rates exceeded 80%. After optimization, PGM at pH 5 was applied to all pollen tube assays. A 10 µL solution of the above peptides or acetonitrile as a negative control was added to each droplet of germinated pollen using a Cell-TramH Air pump (Eppendorf) and a glass micropipette. During this assay, droplets were observed using an Eclipse TE2000 inverted microscope (Nikon) equipped with a 1.4 Megapixel digital AxioCam MRm camera (black and white) and AxioVision digital image processing software (Release 4.8).

Experiment [4] has as its system F. graminearum conidia and mycelia. Type of experiment: cell-based, Fusarium graminearum. As to conditions: NBT staining of superoxide; 60 µM peptide (Fig. 6).
The subject of the next experiment is F. graminearum conidia. Type of experiment: cell-based, Fusarium graminearum. As to conditions: for fungal germination in Fusarium / conidia that did not germinate at all: 90 µM peptide; for fungal germination in Fusarium: 24 hours in PGM, absorbance at 595 nm, germination above 60% taken as threshold; for conidia that did not germinate at all: microscopy; for concentration giving complete suppression of conidia germination: PGM, 24h.

The subject of experiment [5] is U. maydis spores. Type of experiment: cell-based, Ustilago maydis. This is another data set of the same source.

Peptide text beside a SMILES is read from it.

With “AFP2: anti-fungal protein AFP2 from radish (Raphanus sativus) (QKLCQRPSGTWSGVCGNNNACKNQCIRLEKARHGSCNYVFPAHKCICYFPC; UniProt P30230 30-80, looked up)”, the “effect on maize pollen tube growth behaviour” value in the experiment on maize pollen tube is “did not affect”.

With `CC(C)C[C@H](NC(=O)[C@H](CS)NC(=O)[C@H](CCCNC(=N)N)NC(=O)CNC(=O)CNC(=O)[C@@H](NC(=O)[C@H](Cc1ccc(O)cc1)NC(=O)CNC(=O)[C@H](CCCCN)NC(=O)CNC(=O)[C@H](CCC(=O)O)NC(=O)[C@H](C)NC(=O)[C@H](CCCNC(=N)N)NC(=O)[C@H](CS)NC(=O)CN)[C@@H](C)O)C(=O)O` [ES-c] (H-GCRAEGKGYTGGRCL-OH; N-terminus and C-terminus assumed), in experiment [1], the “effect on developed F. graminearum mycelia (24 hpi)” value was “breaking/bursting of cell walls and release of vacuoles”. Moreover, in the experiment on U. maydis spores [2], the “concentration giving complete suppression of spore germination” value is 120 µM, the “germination of Ustilago spores” value is given as 19.1±3.8%, the “spores that did not germinate at all” value is “Approximately 80%” and the “inhibition of germination of Ustilago spores” value was determined as 80.9±1.0%. Besides, the “ROS production in U. maydis spores” value in the experiment on U. maydis spores [3] was “ROS production was also detected”. In addition, the “maize pollen tube burst” value in the experiment on maize pollen tubes (peptide concentration not stated at this place (100nM, 250nM and 500nM applied), PGM pH 5, 5min after application) was determined as 29.3±4.2%. In addition, the “ROS production in F. graminearum conidia and mycelia” value in experiment [4] is reported as “strongly produced ROS”. In addition, in the experiment with F. graminearum conidia, the “fungal germination in Fusarium” value is 19.1±3.8%, the “conidia that did not germinate at all” value is reported as “Approximately 80%” and the “concentration giving complete suppression of conidia germination” value stood at 120 µM.

Take `CC[C@H](C)[C@H](NC(=O)CNC(=O)[C@H](CC(=O)O)NC(=O)[C@H](CC(C)C)NC(=O)[C@@H](NC(=O)[C@@H](NC(=O)[C@@H]1CCCN1C(=O)[C@H](CO)NC(=O)[C@@H](NC(=O)[C@H](CC(C)C)NC(=O)[C@H](CS)NC(=O)[C@@H](N)CCCNC(=N)N)[C@@H](C)CC)[C@@H](C)CC)[C@@H](C)O)C(=O)N[C@@H](CC(C)C)C(=O)N[C@@H](CS)C(=O)N[C@@H](Cc1ccc(O)cc1)C(=O)O` [ES-d] (H-RCLISPITLDGILCY-OH; N-terminus and C-terminus assumed): in experiment [1], the “effect on developed F. graminearum mycelia (24 hpi)” value was “breaking/bursting of cell walls and release of vacuoles”. Besides, in the experiment with U. maydis spores [2], the “concentration giving complete suppression of spore germination” value is 120 µM, the “germination of Ustilago spores” value is on record as 20.6±2.1%, the “spores that did not germinate at all” value is listed as “Approximately 80%” and the “inhibition of germination of Ustilago spores” value worked out at 78.7±1.0%. For the same molecule, the “ROS production in U. maydis spores” value in the experiment on U. maydis spores [3] was “ROS production was also detected”. Also, the “maize pollen tube burst” value in the experiment with maize pollen tubes (500nM peptide in PGM pH 5, measured 5min after application, P < 0.001) is 82.5±5.2%. In addition, the “time after application until pollen tubes started to burst” value in the experiment with maize pollen tubes (PGM pH 5, in words) is given as “within a few seconds”. In experiment [4], the “ROS production in F. graminearum conidia and mycelia” value is recorded as “strongly produced ROS”. In the experiment with F. graminearum conidia, the “fungal germination in Fusarium” value was 20.6±2.1%, the “conidia that did not germinate at all” value is listed as “Approximately 80%” and the “concentration giving complete suppression of conidia germination” value turned out to be 120 µM. Further, the “effect on U. maydis spores” value with U. maydis spores [5] was “burst of swelling spores and excretion of vacuoles and cell components”.
